According to patent publication US7202280B2, “Methods for the treatment and prevention of pancreatitis and for induction of liver regeneration” (priority 2002, dated 2007):

System: syngenic and metallothionein-SSAT mice
Assay: Hepatic, pancreatic and renal polyamine concentration in syngenic and metallothionein-SSAT mice after analogue
Type: in vivo, mouse
Conditions: 24 h
Protocol: α-methylspermidine, Bis-α-methylspermine and α-methylspermine were administered in saline. […] The data are expressed as means ±S.D. For statistical analysis, the two-tailed Student's t test was used.

## CC(N)CCNCCCCN (stereo not drawn) [α-methylspermidine, 1-methylspermidine]
Sg mice, 50 mg/kg
  hepatic N^1-Acetyl-spermidine: 21.45 pmoles/mg tissue wet weight
  hepatic Spermidine: 1018.24 pmoles/mg tissue wet weight
  hepatic Spermine: 864.34 ± 90.79 ^++ pmoles/mg tissue wet weight
  hepatic α-Methyl-spermidine: 394.01 pmoles/mg tissue wet weight
  pancreatic Putrescine: 2.82 pmoles/mg tissue wet weight
  pancreatic Spermidine: 6597.75 ± 1034.98 ^+ pmoles/mg tissue wet weight
  pancreatic Spermine: 911.15 pmoles/mg tissue wet weight
  renal N^1-Acetylspermidine: 36.67 pmoles/mg tissue wet weight
  renal Putrescine: 45.91 pmoles/mg tissue wet weight
  renal Spermidine: 315.36 ± 46.18 ^+ pmoles/mg tissue wet weight
  renal Spermine: 856.32 ± 68.27 pmoles/mg tissue wet weight
  renal α-Methylspermidine: 122.64 pmoles/mg tissue wet weight
Sg mice, 100 mg/kg
  hepatic N^1-Acetyl-spermidine: 12.90 pmoles/mg tissue wet weight
  hepatic Putrescine: 15.36 pmoles/mg tissue wet weight
  hepatic Spermidine: 729.82 pmoles/mg tissue wet weight
  hepatic Spermine: 892.64 ± 79.24 ^++ pmoles/mg tissue wet weight
  hepatic α-Methyl-spermidine: 461.44 pmoles/mg tissue wet weight
  pancreatic N^1-Acetyl-spermidine: 66.33 pmoles/mg tissue wet weight
  pancreatic Spermidine: 6089.81 ± 1039.94 ^++ pmoles/mg tissue wet weight
  pancreatic Spermine: 815.33 pmoles/mg tissue wet weight
  renal N^1-Acetylspermidine: 38.89 pmoles/mg tissue wet weight
  renal Putrescine: 68.97 pmoles/mg tissue wet weight
  renal Spermidine: 231.78 ± 25.15 pmoles/mg tissue wet weight
  renal Spermine: 686.21 ± 75.94 ^+ pmoles/mg tissue wet weight
  renal α-Methylspermidine: 146.37 pmoles/mg tissue wet weight
Sg mice, 150 mg/kg
  hepatic N^1-Acetyl-spermidine: 23.35 pmoles/mg tissue wet weight
  hepatic Spermidine: 723.14 pmoles/mg tissue wet weight
  hepatic Spermine: 739.53 ± 170.40 ^+ pmoles/mg tissue wet weight
  hepatic α-Methyl-spermidine: 504.41 pmoles/mg tissue wet weight
  pancreatic Putrescine: 1.66 pmoles/mg tissue wet weight
  pancreatic Spermidine: 6345.88 ± 1026.88 ^++ pmoles/mg tissue wet weight
  pancreatic Spermine: 833.73 pmoles/mg tissue wet weight
  renal N^1-Acetylspermidine: 24.61 pmoles/mg tissue wet weight
  renal Putrescine: 65.28 pmoles/mg tissue wet weight
  renal Spermidine: 240.59 ± 28.71 pmoles/mg tissue wet weight
  renal Spermine: 635.17 ± 42.35 pmoles/mg tissue wet weight
  renal α-Methylspermidine: 175.49 pmoles/mg tissue wet weight
Sg mice, 250 mg/kg
  hepatic N^1-Acetyl-spermidine: 18.97 pmoles/mg tissue wet weight
  hepatic Putrescine: 21.87 pmoles/mg tissue wet weight
  hepatic Spermidine: 593.49 pmoles/mg tissue wet weight
  hepatic Spermine: 854.77 ± 108.73 ^++ pmoles/mg tissue wet weight
  hepatic α-Methyl-spermidine: 763.57 pmoles/mg tissue wet weight
  pancreatic Putrescine: 158.82 pmoles/mg tissue wet weight
  pancreatic Spermidine: 4773.64 ± 838.69 ^++ pmoles/mg tissue wet weight
  pancreatic Spermine: 762.743 pmoles/mg tissue wet weight
  pancreatic α-Methyl-spermidine: 1363.02 pmoles/mg tissue wet weight
  renal N^1-Acetylspermidine: 31.10 pmoles/mg tissue wet weight
  renal Putrescine: 41.84 pmoles/mg tissue wet weight
  renal Spermidine: 225.57 ± 29.21 ^+ pmoles/mg tissue wet weight
  renal Spermine: 518.89 ± 36.68 pmoles/mg tissue wet weight
  renal α-Methylspermidine: 288.30 pmoles/mg tissue wet weight
Sg mice, 375 mg/kg
  hepatic N^1-Acetyl-spermidine: 31.64 pmoles/mg tissue wet weight
  hepatic Putrescine: 29.37 pmoles/mg tissue wet weight
  hepatic Spermidine: 370.29 pmoles/mg tissue wet weight
  hepatic Spermine: 644.88 ± 183.36 ^+ pmoles/mg tissue wet weight
  hepatic α-Methyl-spermidine: 1095.59 pmoles/mg tissue wet weight
  pancreatic N^1-Acetyl-spermidine: 14.02 pmoles/mg tissue wet weight
  pancreatic Putrescine: 726.66 pmoles/mg tissue wet weight
  pancreatic Spermidine: 4073.3 ± 670.46^++ pmoles/mg tissue wet weight
  pancreatic Spermine: 740.93 pmoles/mg tissue wet weight
  pancreatic α-Methyl-spermidine: 1319.14 pmoles/mg tissue wet weight
  renal N^1-Acetylspermidine: 27.40 pmoles/mg tissue wet weight
  renal Putrescine: 58.59 pmoles/mg tissue wet weight
  renal Spermidine: 189.46 ± 0.98 pmoles/mg tissue wet weight
  renal Spermine: 454.49 ± 64.44 ^+ pmoles/mg tissue wet weight
  renal α-Methylspermidine: 477.31 pmoles/mg tissue wet weight
Sg mice, 500 mg/kg
  hepatic N^1-Acetyl-spermidine: 133.00 pmoles/mg tissue wet weight
  hepatic Putrescine: 119.33 pmoles/mg tissue wet weight
  hepatic Spermidine: 273.13 pmoles/mg tissue wet weight
  hepatic Spermine: 666.13 ± 188.21 pmoles/mg tissue wet weight
  hepatic α-Methyl-spermidine: 1801.46 pmoles/mg tissue wet weight
  pancreatic N^1-Acetyl-spermidine: 10.62 pmoles/mg tissue wet weight
  pancreatic Putrescine: 812.54 pmoles/mg tissue wet weight
  pancreatic Spermidine: 3669.36 ± 1235.66 pmoles/mg tissue wet weight
  pancreatic Spermine: 652.17 pmoles/mg tissue wet weight
  pancreatic α-Methyl-spermidine: 1273.3 pmoles/mg tissue wet weight
  renal N^1-Acetylspermidine: 46.34 pmoles/mg tissue wet weight
  renal Putrescine: 789.63 pmoles/mg tissue wet weight
  renal Spermidine: 181.32 ± 28.81 pmoles/mg tissue wet weight
  renal Spermine: 458.07 ± 107.68 pmoles/mg tissue wet weight
  renal α-Methylspermidine: 1078.16 pmoles/mg tissue wet weight
Tg mice, 50 mg/kg
  hepatic N^1-Acetyl-spermidine: 245.16 pmoles/mg tissue wet weight
  hepatic Putrescine: 1055.38 pmoles/mg tissue wet weight
  hepatic Spermidine: 329.57 pmoles/mg tissue wet weight
  hepatic Spermine: 103.26 ± 188.21 pmoles/mg tissue wet weight
  hepatic α-Methyl-spermidine: 582.62 pmoles/mg tissue wet weight
  pancreatic N^1-Acetyl-spermidine: 204.43 pmoles/mg tissue wet weight
  pancreatic Putrescine: 4968.25 pmoles/mg tissue wet weight
  pancreatic Spermidine: 1316.94 ± 248.44 pmoles/mg tissue wet weight
  pancreatic Spermine: 224.17 pmoles/mg tissue wet weight
  pancreatic α-Methyl-spermidine: 627.87 pmoles/mg tissue wet weight
  renal N^1-Acetylspermidine: 49.14 pmoles/mg tissue wet weight
  renal Putrescine: 179.10 pmoles/mg tissue wet weight
  renal Spermidine: 231.02 ± 15.59 pmoles/mg tissue wet weight
  renal Spermine: 896.89 ± 25.61 pmoles/mg tissue wet weight
  renal α-Methylspermidine: 133.67 pmoles/mg tissue wet weight
Tg mice, 100 mg/kg
  hepatic N^1-Acetyl-spermidine: 293.66 pmoles/mg tissue wet weight
  hepatic Putrescine: 834.88 pmoles/mg tissue wet weight
  hepatic Spermidine: 286.11 pmoles/mg tissue wet weight
  hepatic Spermine: 97.52 ± 52.21 pmoles/mg tissue wet weight
  hepatic α-Methyl-spermidine: 676.44 pmoles/mg tissue wet weight
  pancreatic N^1-Acetyl-spermidine: 656.51 pmoles/mg tissue wet weight
  pancreatic Putrescine: 4467.46 pmoles/mg tissue wet weight
  pancreatic Spermidine: 1539.88 ± 351.44 pmoles/mg tissue wet weight
  pancreatic Spermine: 211.73 pmoles/mg tissue wet weight
  pancreatic α-Methyl-spermidine: 731.63 pmoles/mg tissue wet weight
  renal N^1-Acetylspermidine: 65.00 pmoles/mg tissue wet weight
  renal Putrescine: 133.86 pmoles/mg tissue wet weight
  renal Spermidine: 212.40 ± 10.9 pmoles/mg tissue wet weight
  renal Spermine: 840.58 ± 67.32 pmoles/mg tissue wet weight
  renal α-Methylspermidine: 136.61 pmoles/mg tissue wet weight
Tg mice, 150 mg/kg
  hepatic N^1-Acetyl-spermidine: 230.96 pmoles/mg tissue wet weight
  hepatic Putrescine: 603.18 pmoles/mg tissue wet weight
  hepatic Spermidine: 260.13 pmoles/mg tissue wet weight
  hepatic Spermine: 79.41 ± 25.11 pmoles/mg tissue wet weight
  hepatic α-Methyl-spermidine: 1206.94 pmoles/mg tissue wet weight
  pancreatic N^1-Acetyl-spermidine: 185.50 pmoles/mg tissue wet weight
  pancreatic Putrescine: 4457.91 pmoles/mg tissue wet weight
  pancreatic Spermidine: 1244.49 ± 565.07 pmoles/mg tissue wet weight
  pancreatic Spermine: 213.86 pmoles/mg tissue wet weight
  pancreatic α-Methyl-spermidine: 942.74 pmoles/mg tissue wet weight
  renal N^1-Acetylspermidine: 41.78 pmoles/mg tissue wet weight
  renal Putrescine: 119.47 pmoles/mg tissue wet weight
  renal Spermidine: 201.24 ± 19.1 pmoles/mg tissue wet weight
  renal Spermine: 721.39 ± 64.84 pmoles/mg tissue wet weight
  renal α-Methylspermidine: 148.99 pmoles/mg tissue wet weight
Tg mice, 250 mg/kg
  hepatic N^1-Acetyl-spermidine: 211.54 pmoles/mg tissue wet weight
  hepatic Putrescine: 444.97 pmoles/mg tissue wet weight
  hepatic Spermidine: 199.53 pmoles/mg tissue wet weight
  hepatic Spermine: 36.38 ± 9.89 pmoles/mg tissue wet weight
  hepatic α-Methyl-spermidine: 1293.76 pmoles/mg tissue wet weight
  pancreatic N^1-Acetyl-spermidine: 137.01 pmoles/mg tissue wet weight
  pancreatic Putrescine: 4637.87 pmoles/mg tissue wet weight
  pancreatic Spermidine: 967.83 ± 396.04 pmoles/mg tissue wet weight
  pancreatic Spermine: 157.23 pmoles/mg tissue wet weight
  pancreatic α-Methyl-spermidine: 1166.56 pmoles/mg tissue wet weight
  renal N^1-Acetylspermidine: 48.47 pmoles/mg tissue wet weight
  renal Putrescine: 103.63 pmoles/mg tissue wet weight
  renal Spermidine: 185.82 ± 18.56 pmoles/mg tissue wet weight
  renal Spermine: 597.01 ± 91.36 pmoles/mg tissue wet weight
  renal α-Methylspermidine: 169.73 pmoles/mg tissue wet weight
Tg mice, 375 mg/kg
  hepatic N^1-Acetyl-spermidine: 252.33 pmoles/mg tissue wet weight
  hepatic Putrescine: 861.39 pmoles/mg tissue wet weight
  hepatic Spermidine: 168.25 pmoles/mg tissue wet weight
  hepatic Spermine: 41.95 ± 8.02 pmoles/mg tissue wet weight
  hepatic α-Methyl-spermidine: 1012.46 pmoles/mg tissue wet weight
  pancreatic N^1-Acetyl-spermidine: 95.41 pmoles/mg tissue wet weight
  pancreatic Putrescine: 4826.59 pmoles/mg tissue wet weight
  pancreatic Spermidine: 1002.33 ± 365.29 pmoles/mg tissue wet weight
  pancreatic Spermine: 122.49 pmoles/mg tissue wet weight
  pancreatic α-Methyl-spermidine: 1378.62 pmoles/mg tissue wet weight
  renal N^1-Acetylspermidine: 44.65 pmoles/mg tissue wet weight
  renal Putrescine: 127.41 pmoles/mg tissue wet weight
  renal Spermidine: 173.73 ± 13.69 pmoles/mg tissue wet weight
  renal Spermine: 580.26 ± 51.87 pmoles/mg tissue wet weight
  renal α-Methylspermidine: 192.90 pmoles/mg tissue wet weight
